Source: patent US20260085053A1, “BENZOFURAN DERIVATIVES AS SIK INHIBITORS AND THE USE THEREOF” (BEONE MEDICINES I GMBH, priority 2023, published 2026)

Tests used:
[1] = target: T1, SIK1 kinase (aa1-303, Thermo Fisher) (Homo sapiens, UniProt P57059); assay: Biochemical activities determination for SIK1 protein (TR-FRET); settings: 110 uM ATP, 0.5 μM STK1 substrate
T1 construct: SIK1 kinase (aa1-303, Thermo Fisher); purchased Thermo Fisher
Outline: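 TR-FRET kinase assay with SIK1 (aa1-303), 110 uM ATP, 0.5 μM STK1 substrate and 0-10 μM compound in Tris pH 7.5 with MgCl2, EGTA, DTT, Triton X-100. Enzyme preincubated with compound 60 min, reaction 180 min at room temperature; 665/620 nm ratio after overnight detection; IC50 from four-parameter logistic fit.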

[2] = target: T2, SIK3 kinase (aa59-365, Thermo Fisher) (Homo sapiens, UniProt Q9Y2K2); assay: Biochemical activities determination for SIK3 protein (TR-FRET); settings: 125 uM ATP, 0.5 μM STK1 substrate
T2 construct: SIK3 kinase (aa59-365, Thermo Fisher); purchased Thermo Fisher
Outline: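 SIK3 (aa59-365) was preincubated with compound (0-10 μM) for 60 min at room temperature in Tris buffer pH 7.5. The reaction was then started with 125 uM ATP and 0.5 μM STK1 substrate and run 180 min at room temperature. Phospho-substrate was detected by HTRF (665/620 nm ratio), and IC50 came from a four-parameter logistic fit.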

[3] = target: T3, SIK2 kinase (full length, Thermo Fisher) (Homo sapiens, UniProt Q9H0K1); assay: Biochemical activities determination for SIK2 protein (TR-FRET); settings: 80 uM ATP, 0.5 μM substrate
T3 construct: SIK2 kinase (full length, Thermo Fisher); purchased Thermo Fisher
Outline: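 Full-length SIK2 preincubated 60 min with 0–10 μM compound, then reacted 180 min at room temperature with 80 uM ATP and 0.5 μM biotinylated substrate (pH 7.5 Tris/MgCl2 buffer). Phosphorylation detected by TR-FRET (665/620 nm ratio, cryptate antibody/streptavidin-XL665) after overnight incubation; IC50 from four-parameter logistic fit.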

T1 sequence (P57059 1-303): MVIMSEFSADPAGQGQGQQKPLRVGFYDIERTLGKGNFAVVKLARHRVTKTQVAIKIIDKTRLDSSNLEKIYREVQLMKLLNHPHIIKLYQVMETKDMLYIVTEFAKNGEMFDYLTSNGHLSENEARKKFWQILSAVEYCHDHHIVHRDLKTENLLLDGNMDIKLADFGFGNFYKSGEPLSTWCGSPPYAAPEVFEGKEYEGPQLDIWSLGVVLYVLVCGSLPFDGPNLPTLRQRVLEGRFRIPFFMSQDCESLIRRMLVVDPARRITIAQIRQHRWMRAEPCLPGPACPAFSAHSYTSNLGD
T2 sequence (Q9Y2K2 59-365): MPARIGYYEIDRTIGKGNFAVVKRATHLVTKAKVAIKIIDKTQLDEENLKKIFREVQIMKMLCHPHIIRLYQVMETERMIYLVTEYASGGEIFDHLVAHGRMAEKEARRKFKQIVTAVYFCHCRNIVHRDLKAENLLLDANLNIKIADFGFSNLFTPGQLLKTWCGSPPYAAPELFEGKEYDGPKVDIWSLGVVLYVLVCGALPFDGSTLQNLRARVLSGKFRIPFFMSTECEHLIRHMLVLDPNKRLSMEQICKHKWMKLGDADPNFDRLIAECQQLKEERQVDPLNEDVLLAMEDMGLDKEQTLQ
T3 sequence (Q9H0K1 whole entry): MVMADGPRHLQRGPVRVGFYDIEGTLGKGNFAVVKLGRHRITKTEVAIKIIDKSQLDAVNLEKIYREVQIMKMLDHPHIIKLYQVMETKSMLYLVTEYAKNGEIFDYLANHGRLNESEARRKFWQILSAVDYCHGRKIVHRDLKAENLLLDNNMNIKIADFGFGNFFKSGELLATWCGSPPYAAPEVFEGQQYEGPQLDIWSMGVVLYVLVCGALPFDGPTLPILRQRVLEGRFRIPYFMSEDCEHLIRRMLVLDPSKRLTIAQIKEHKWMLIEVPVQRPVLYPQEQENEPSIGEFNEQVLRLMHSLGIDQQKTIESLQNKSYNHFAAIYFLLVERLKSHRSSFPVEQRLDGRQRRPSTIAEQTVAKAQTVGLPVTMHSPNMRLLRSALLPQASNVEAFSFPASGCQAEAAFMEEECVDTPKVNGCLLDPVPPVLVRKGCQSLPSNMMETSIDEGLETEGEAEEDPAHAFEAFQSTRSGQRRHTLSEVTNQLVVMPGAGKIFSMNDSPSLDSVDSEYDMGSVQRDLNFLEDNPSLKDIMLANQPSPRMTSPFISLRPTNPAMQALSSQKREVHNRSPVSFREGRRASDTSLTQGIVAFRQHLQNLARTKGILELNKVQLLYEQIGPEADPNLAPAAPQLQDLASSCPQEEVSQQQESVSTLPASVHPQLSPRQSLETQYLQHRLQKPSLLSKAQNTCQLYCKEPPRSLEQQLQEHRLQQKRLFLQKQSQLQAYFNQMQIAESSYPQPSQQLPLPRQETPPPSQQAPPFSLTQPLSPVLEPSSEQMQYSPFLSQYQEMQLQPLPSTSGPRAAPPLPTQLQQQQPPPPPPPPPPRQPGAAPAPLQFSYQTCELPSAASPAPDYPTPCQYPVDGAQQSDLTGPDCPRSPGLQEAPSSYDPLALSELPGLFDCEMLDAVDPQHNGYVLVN

SMILES	IC50 [1] [nM]	IC50 [2] [nM]	IC50 [3] [nM]
COc1cc(-c2coc3cc(OCCN4CCOCC4)ccc23)cc2c1C(=O)N(CC(F)(F)F)CC2 [Compound 58, 8-methoxy-6-(6-(2-morpholinoethoxy)benzofuran-3-yl)-2-(2,2,2-trifluoroethyl)-3,4-dihydroisoquinolin-1 (2H)-one]	> 10000	391	167
COc1cc(-c2coc3cc(OCCN4CCCC4)ccc23)cc2c1C(=O)N(CC(F)(F)F)CC2 [Compound 59, 8-methoxy-6-(6-(2-(pyrrolidin-1-yl)ethoxy)benzofuran-3-yl)-2-(2,2,2-trifluoroethyl)-3,4-dihydroisoquinolin-1 (2H)-one]	> 10000	348	77
COc1cc(-c2coc3cc(OCc4cncn4C)ccc23)cc2c1C(=O)N(CC(F)(F)F)CC2 [Compound 60, 8-methoxy-6-(6-((1-methyl-1H-imidazol-5-yl)methoxy)benzofuran-3-yl)-2-(2,2,2-trifluoroethyl)-3,4-dihydroisoquinolin-1 (2H)-one]	> 10000	421	635
COc1cc(-c2coc3cc(OCC4CCCN4C)ccc23)cc2c1C(=O)N(CC(F)(F)F)CC2 (stereo not drawn) [Compound 61, 8-methoxy-6-(6-((1-methylpyrrolidin-2-yl)methoxy)benzofuran-3-yl)-2-(2,2,2-trifluoroethyl)-3,4-dihydroisoquinolin-1 (2H)-one]	> 10000	322	147
COc1cc(-c2coc3cc(OCCN4CCCC4)ccc23)cc(OC(F)F)c1C(=O)NC1CC1 [Compound 62, N-cyclopropyl-2-(difluoromethoxy)-6-methoxy-4-(6-(2-(pyrrolidin-1-yl)ethoxy)benzofuran-3-yl)benzamide]	> 10000	122	76
O=C1c2c(cc(-c3coc4cc(OCCN5CCCC5)ccc34)cc2OC(F)F)CCN1CC(F)(F)F [Compound 63, 8-(difluoromethoxy)-6-(6-(2-(pyrrolidin-1-yl)ethoxy)benzofuran-3-yl)-2-(2,2,2-trifluoroethyl)-3,4-dihydroisoquinolin-1 (2H)-one]	> 10000	300	67
COc1cc(-c2coc3cc(OCCN4CCCCC4)ccc23)cc2c1C(=O)N(CC(F)(F)F)CC2 [Compound 64, 8-methoxy-6-(6-(2-(piperidin-1-yl)ethoxy)benzofuran-3-yl)-2-(2,2,2-trifluoroethyl)-3,4-dihydroisoquinolin-1 (2H)-one]	> 10000	415	73
COc1cc(-c2coc3cc(OCCN4CCCC4)ccc23)cc2c1C(=O)N(CC#N)CC2 [Compound 65, 2-(8-methoxy-1-oxo-6-(6-(2-(pyrrolidin-1-yl)ethoxy)benzofuran-3-yl)-3,4-dihydroisoquinolin-2 (1H)-yl) acetonitrile]	> 10000	313	103
COc1cc(-c2coc3cc(OCCN4CCCC4)ccc23)cc(OC(F)F)c1C(=O)NCC#N [Compound 66, N-(cyanomethyl)-2-(difluoromethoxy)-6-methoxy-4-(6-(2-(pyrrolidin-1-yl)ethoxy)benzofuran-3-yl)benzamide]	6690	132	58
COc1cc(-c2coc3cc(OCCN4CCCC4)ccc23)cc(OC(F)F)c1C(=O)N[C@@H]1C[C@@H]1F [Compound 67, 2-(difluoromethoxy)-N-((1R,2S)-2-fluorocyclopropyl)-6-methoxy-4-(6-(2-(pyrrolidin-1-yl)ethoxy)benzofuran-3-yl)benzamide]	2450	79	23
COc1cc(-c2coc3cc(OC(C)CN4CCCC4)ccc23)cc(OC(F)F)c1C(=O)N[C@@H]1C[C@@H]1F (stereo partly drawn) [Compound 68, 2-(difluoromethoxy)-N-((1R,2S)-2-fluorocyclopropyl)-6-methoxy-4-(6-((1-(pyrrolidin-1-yl)propan-2-yl)oxy)benzofuran-3-yl)benzamide]	8180	139	90

Continued, values first:

IC50 [1] [nM]	IC50 [2] [nM]	IC50 [3] [nM]	SMILES
1270	45	41	COc1cc(-c2coc3cc(OCCN4CCOCC4)ccc23)cc(OC(F)F)c1C(=O)N[C@@H]1C[C@@H]1F [Compound 69, 2-(difluoromethoxy)-N-((1R,2S)-2-fluorocyclopropyl)-6-methoxy-4-(6-(2-morpholinoethoxy)benzofuran-3-yl)benzamide]
2950	42	14	COc1cc(-c2coc3cc(OCCN4CCCCC4)ccc23)cc(OC(F)F)c1C(=O)N[C@@H]1C[C@@H]1F [Compound 70, 2-(difluoromethoxy)-N-((1R,2S)-2-fluorocyclopropyl)-6-methoxy-4-(6-(2-(piperidin-1-yl)ethoxy)benzofuran-3-yl)benzamide]
1380	39	48	COc1cc(-c2coc3cc(OCCN4CC[C@@H](F)C4)ccc23)cc(OC(F)F)c1C(=O)N[C@@H]1C[C@@H]1F [Compound 71, 2-(difluoromethoxy)-N-((1R,2S)-2-fluorocyclopropyl)-4-(6-(2-((R)-3-fluoropyrrolidin-1-yl)ethoxy)benzofuran-3-yl)-6-methoxybenzamide]
461	31	6	COc1cc(-c2coc3cc(OCCCN4CCCC4)ccc23)cc(OC(F)F)c1C(=O)N[C@@H]1C[C@@H]1F [Compound 72, 2-(difluoromethoxy)-N-((1R,2S)-2-fluorocyclopropyl)-6-methoxy-4-(6-(3-(pyrrolidin-1-yl)propoxy)benzofuran-3-yl)benzamide]
3260	65	24	COc1cc(-c2coc3cc(OCCN(C)C)ccc23)cc(OC(F)F)c1C(=O)N[C@@H]1C[C@@H]1F [Compound 73, 2-(difluoromethoxy)-4-(6-(2-(dimethylamino)ethoxy)benzofuran-3-yl)-N-((1R,2S)-2-fluorocyclopropyl)-6-methoxybenzamide]
1130	34	26	COc1cc(-c2coc3cc(OCCN4CC[C@H](F)C4)ccc23)cc(OC(F)F)c1C(=O)N[C@@H]1C[C@@H]1F [Compound 74, 2-(difluoromethoxy)-N-((1R,2S)-2-fluorocyclopropyl)-4-(6-(2-((S)-3-fluoropyrrolidin-1-yl)ethoxy)benzofuran-3-yl)-6-methoxybenzamide]
1740	93	16	COc1cc(-c2coc3cc(OCCN4CCC4)ccc23)cc(OC(F)F)c1C(=O)N[C@@H]1C[C@@H]1F [Compound 75, 4-(6-(2-(azetidin-1-yl)ethoxy)benzofuran-3-yl)-2-(difluoromethoxy)-N-((1R,2S)-2-fluorocyclopropyl)-6-methoxybenzamide]
1010	34	34	COc1cc(-c2coc3cc(OCCN4CCC(C(F)(F)F)C4)ccc23)cc(OC(F)F)c1C(=O)N[C@@H]1C[C@@H]1F (stereo partly drawn) [Compound 76, 2-(difluoromethoxy)-N-((1R,2S)-2-fluorocyclopropyl)-6-methoxy-4-(6-(2-(3-(trifluoromethyl)pyrrolidin-1-yl)ethoxy)benzofuran-3-yl)benzamide]
3370	80	27	COc1cc(-c2coc3cc(OCCN4CCC[C@H]4C)ccc23)cc(OC(F)F)c1C(=O)N[C@@H]1C[C@@H]1F [Compound 77, 2-(difluoromethoxy)-N-((1R,2S)-2-fluorocyclopropyl)-6-methoxy-4-(6-(2-((R)-2-methylpyrrolidin-1-yl)ethoxy)benzofuran-3-yl)benzamide]
1890	42	19	COc1cc(-c2coc3cc(OCCN4CC[C@@H](C)C4)ccc23)cc(OC(F)F)c1C(=O)N[C@@H]1C[C@@H]1F [Compound 78, 2-(difluoromethoxy)-N-((1R,2S)-2-fluorocyclopropyl)-6-methoxy-4-(6-(2-((R)-3-methylpyrrolidin-1-yl)ethoxy)benzofuran-3-yl)benzamide]
2190	57	19	COc1cc(-c2coc3cc(OCCN4CC[C@@H](OC)C4)ccc23)cc(OC(F)F)c1C(=O)N[C@@H]1C[C@@H]1F [Compound 79, 2-(difluoromethoxy)-N-((1R,2S)-2-fluorocyclopropyl)-6-methoxy-4-(6-(2-((R)-3-methoxypyrrolidin-1-yl)ethoxy)benzofuran-3-yl)benzamide]
2850	54	20	COc1cc(-c2coc3cc(OCCN4CCC[C@@H]4C)ccc23)cc(OC(F)F)c1C(=O)N[C@@H]1C[C@@H]1F [Compound 80, 2-(difluoromethoxy)-N-((1R,2S)-2-fluorocyclopropyl)-6-methoxy-4-(6-(2-((S)-2-methylpyrrolidin-1-yl)ethoxy)benzofuran-3-yl)benzamide]
